This note sets out measurements from patent publication US8530465B2, “1, 2-disubstituted amido-anthraquinone derivatives, preparation method and application thereof” (National Defense Medical Center, priority 2010, dated 2013).

One series deals with hTERT. Description: Secreted alkaline phosphatase (SEAP) assay, PhTERT-SEAP (H1299). The series is classed as cell-based. Conditions: Homo sapiens, 24 hours; for activity at 1 µM: NCI-H1299, Conc. 1 μM, read-out: Relative SEAP activity (%); for activity at 10 µM: NCI-H1299, Conc. 10 μM; for activity at 10 µM / activity at 100 µM: read-out: Relative SEAP activity (%) (converted); for activity at 100 µM: NCI-H1299, Conc. 100 μM. The method in brief: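 Stable H1299 clone carrying the −3338 to +1 bp hTERT promoter upstream of SEAP; ~10^4 cells/well treated with varying drug amounts for 24 h at 37° C. Media heat-treated 65° C. 10 min, mixed with diethanolamine/MgCl2/L-homoarginine buffer and 12 mM p-nitrophenyl phosphate final; SEAP activity taken as rate of A405 increase.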

In another series the test system is H1299. Description: MTT assay, PhTERT-SEAP (H1299). The conditions noted are these: H1299; for cell toxicity activity: low concentration (1 μM). Format: cell-based, human. The method in brief: (§1)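 Cultured cells received MTT for 4 h at 37 °C, then lysis buffer overnight at 37 °C. Optical density was read at 550 nm.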
The nature of series [1]: MTT assay, PhTERT-SEAP (H1299). Format: cell-based, human. Conditions: human, H1299 cells carrying the PhTERT-SEAP reporter, PhTERT-SEAP (H1299); for viability at 1 μM: Conc. 1 μM, read-out: Relative MTT viability (%); for viability at 10 μM: Conc. 10 μM. The method in brief:
as §1

Setting [2] is: read-out: Relative MTT viability (%) (converted).

Structures are written as SMILES.

Molecule `CC(Cl)C(=O)Nc1c(NC(=O)CCl)ccc2c1C(=O)c1ccccc1C2=O` (stereo not shown) [CC-06, 1-[(2-chloropropanyl)amido]-2-(chloroacetamido)-anthraquinone] returned a melting point of 175 to 176 °C. In addition, in the series on hTERT, the activity at 1 µM was found to be 12.1 ± 0.44%, the activity at 10 µM was 1.04% and the activity at 100 µM is 2.38%. The “cell toxicity / inhibitory activity compared with mitoxantrone and doxorubicin” value in the series with H1299 (SEAP and MTT analysis) was “higher cell toxicity activity than mitoxantrone and doxorubicin”. Also, the viability at 1 μM in series [1] was determined as 9.01 ± 1.66%.

Take `O=C(CCl)Nc1ccc2c(c1NC(=O)c1cccc(F)c1)C(=O)c1ccccc1C2=O` [CC-14, 1-(3-fluorobenzamido)-2-(chloroacetamido)-anthraquinone]: the melting point lay in the range of 197 to 198 °C. In the series with hTERT, the activity at 1 µM was 26.9 ± 11.6%, the activity at 10 µM was 1.77% and the activity at 100 µM was 0.97%. In the series with H1299 (SEAP and MTT analysis), the “cell toxicity / inhibitory activity compared with mitoxantrone and doxorubicin” value is “inhibitory activity even better than mitoxantrone and doxorubicin”. Also, the cell toxicity activity result in the series with H1299 is “very strong cell toxicity activity”. Moreover, in series [1], the viability at 1 μM is 18.3 ± 13.5%. For the same molecule, the viability at 10 μM in series [1] (setting [2]) is 8.06%.

For the molecule `O=C(CCl)Nc1ccc2c(c1NC(=O)c1ccc(F)cc1)C(=O)c1ccccc1C2=O` [CC-15, 1-(4-fluorobenzamido)-2-(chloroacetamido)-anthraquinone], the melting point was in the range of 184 to 185 °C. Further, in the series with hTERT, the activity at 1 µM amounted to 11.9 ± 9.77%, the activity at 10 µM was 2.58% and the activity at 100 µM was 0.52%. Also, the “cell toxicity / inhibitory activity compared with mitoxantrone and doxorubicin” value with H1299 (SEAP and MTT analysis) was “inhibitory activity even better than mitoxantrone and doxorubicin”. Also, the cell toxicity activity entry in the series on H1299 was “very strong cell toxicity activity”. Further, in series [1], the viability at 1 μM worked out at 10.9 ± 2.92%. The viability at 10 μM in series [1] (setting [2]) was 4.2%.

Molecule `O=C(CN1CCN(c2ccccc2)CC1)Nc1ccc2c(c1NC(=O)c1ccccc1)C(=O)c1ccccc1C2=O` [CC-33, 1-(benzamido)-2-[2-(4-phenylpiperazino)acetylamino]-anthraquinone] returned a melting point of 225 to 226 °C. Moreover, in the series on hTERT, the activity at 1 µM was 85.9 ± 8.01%, the activity at 10 µM is 97.9 ± 4.82% and the activity at 100 µM was 89.6 ± 3.37%. Moreover, in the series with H1299 (1 μM, 10 μM, and 100 μM), the cell toxicity result is “no significant cell toxicity”. The viability at 1 μM in series [1] amounted to 86.3 ± 2.6%. Besides, the viability at 10 μM in series [1] (setting [2]) is 110 ± 8.53%. The viability at 100 μM in series [1] (Conc. 100 μM, read-out: Relative MTT viability (%) (converted)) was 88 ± 6.32%.

With `Cc1ccc(C(=O)Nc2c(NC(=O)CN3CCN(CCO)CC3)ccc3c2C(=O)c2ccccc2C3=O)cc1` [CC-44, 1-(4-methylbenzamido)-2-[2-(4-(2-hydroxyethyl)piperazino]acetylamino]-anthraquinone], the melting point was 210 to 211 °C. Further, in the series with hTERT, the activity at 1 µM was 77 ± 9.13%, the activity at 10 µM was 8.09% and the activity at 100 µM was -1.24%. Besides, the “inhibitory activity among compounds CC-35 to CC-50” value with H1299 (SEAP and MTT analysis) is “higher inhibitory activity”. The viability at 1 μM in series [1] is 71.5 ± 5.12%. Moreover, the viability at 10 μM in series [1] (setting [2]) was 44.8%.
